This is an account of results in patent US7964620B2, “Imidazole derivatives” (Hoffmann-La Roche Inc., priority 2003, dated 2011).

The structures appear in SMILES notation.

In the experiment the target is T1, human mGlu 5a receptor (Homo sapiens, UniProt P41594).
T1 construct: expressed in transfected cells; host or cells: EBNA cells (transient transfection); cell membrane homogenates
In words: [3H]MPEP competition binding on membranes of EBNA cells transiently transfected with human mGlu 5a receptor. The following applies: competition with 2 nM [3H]MPEP, 1 h at 4° C., Ki=IC50/[1+L/Kd]. On the procedure: For binding experiments, cDNA encoding human mGlu 5a receptor was transiently trans-fected into EBNA cells using a procedure described by Schlaeger and Christensen [Cyto-technology 15:1-13 (1998)]. Cell membrane homogenates were stored at −80° C. until the day of assay where upon they were thawed and resuspended and polytronized in 15 mM Tris-HCl, 120 mM NaCl, 100 mM KCl, 25 mM CaCl2, 25 mM MgCl2 binding buffer at pH 7.4 to a final assay concentration of 20 μg protein/well.
Saturation isotherms were determined by addition of twelve [^3H]MPEP concentrations (0.04-100 nM) to these membranes (in a total volume of 200 μl) for 1 h at 4° C. Competition experiments were performed with a fixed concentration of [^3H]MPEP (2 nM) and IC50 values of test compounds evaluated using 11 concentrations (0.3-10,000 nM). Incubations were performed for 1 h at 4° C.
At the end of the incubation, membranes were filtered onto unifilter (96-well white microplate with bonded GF/C filter preincubated 1 h in 0.1% PEI in wash buffer, Packard BioScience, Meriden, Conn.) with a Filtermate 96 harvester (Packard BioScience) and washed 3 times with cold 50 mM Tris-HCl, pH 7.4 buffer. Nonspecific binding was measured in the presence of 10 μM MPEP. The radioactivity on the filter was counted (3 min) on a Packard Top-count microplate scintillation counter with quenching correction after addition of 45 μl of microscint 40 (Can berra Packard S. A., Zürich, Switzerland) and shaking for 20 min. For functional assays, [Ca^2+]i measurements were performed as described previously by Porter et al. [Br. J. Pharmacol. 128:13-20 (1999)] on recombinant human mGlu 5a receptors in HEK-293 cells. The cells were dye loaded using Fluo 4-AM (obtainable by FLUKA, 0.2 μM final concentration). [Ca^2+]i measurements were performed using a fluorometric imaging plate reader (FLIPR, Molecular Devices Corporation, La Jolla, Calif., USA). Antagonist evaluation was performed following a 5 min preincubation with the test compounds followed by the addition of a submaximal addition of agonist.
The inhibition (antagonists) curves were fitted with a four parameter logistic equation giving IC50, and Hill coefficient using an iterative non linear curve fitting software (Xcel fit). For binding experiments the Ki values of the compounds tested are given. The Ki value is defined by the following formula: Ki=IC50/[1+L/Kd] in which the IC50 values are those concentrations of the compounds tested which cause 50% inhibition of the competing radioligand ([^3H]MPEP). L is the concentration of radioligand used in the binding experiment and the Kd value of the radioligand is empirically determined for each batch of membranes prepared.

Broadly, the Ki is the equilibrium dissociation constant of an inhibitor or competing ligand from its target.

T1 sequence (P41594 21-1180 isoform P41594-2 limits assumed): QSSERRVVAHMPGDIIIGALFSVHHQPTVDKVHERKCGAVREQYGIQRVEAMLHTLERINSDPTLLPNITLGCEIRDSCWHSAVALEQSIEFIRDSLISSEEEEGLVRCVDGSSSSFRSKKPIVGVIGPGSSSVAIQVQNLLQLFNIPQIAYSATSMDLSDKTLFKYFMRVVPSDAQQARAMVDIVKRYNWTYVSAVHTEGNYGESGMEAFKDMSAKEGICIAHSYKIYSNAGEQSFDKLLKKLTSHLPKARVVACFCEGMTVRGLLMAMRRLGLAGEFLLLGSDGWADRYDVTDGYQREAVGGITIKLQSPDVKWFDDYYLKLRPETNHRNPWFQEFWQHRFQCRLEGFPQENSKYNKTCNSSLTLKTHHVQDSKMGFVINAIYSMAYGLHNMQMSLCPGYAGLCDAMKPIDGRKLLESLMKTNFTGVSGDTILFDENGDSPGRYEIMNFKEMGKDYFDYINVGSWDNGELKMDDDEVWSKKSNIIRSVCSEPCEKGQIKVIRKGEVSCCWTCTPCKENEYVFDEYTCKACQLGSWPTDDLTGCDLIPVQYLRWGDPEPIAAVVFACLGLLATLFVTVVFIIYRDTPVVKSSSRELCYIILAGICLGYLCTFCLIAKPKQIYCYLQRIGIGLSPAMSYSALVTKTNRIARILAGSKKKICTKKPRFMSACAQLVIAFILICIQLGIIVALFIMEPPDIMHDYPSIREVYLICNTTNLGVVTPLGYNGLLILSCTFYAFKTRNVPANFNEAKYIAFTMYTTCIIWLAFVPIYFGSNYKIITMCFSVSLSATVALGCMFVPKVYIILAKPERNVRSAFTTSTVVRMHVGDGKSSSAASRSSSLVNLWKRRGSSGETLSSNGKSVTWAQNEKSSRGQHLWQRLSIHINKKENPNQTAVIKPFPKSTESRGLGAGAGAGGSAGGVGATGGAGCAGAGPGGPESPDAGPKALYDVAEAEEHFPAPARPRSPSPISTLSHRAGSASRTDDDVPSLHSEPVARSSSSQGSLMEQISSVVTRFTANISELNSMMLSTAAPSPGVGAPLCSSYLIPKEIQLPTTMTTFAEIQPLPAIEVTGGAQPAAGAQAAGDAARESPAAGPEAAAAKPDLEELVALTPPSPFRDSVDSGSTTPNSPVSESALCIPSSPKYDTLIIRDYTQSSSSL

Regarding `Cc1cc(C#Cc2cn(CCc3ccccc3)c(C)n2)ccn1` [Example 29, 2-Methyl-4-(2-methyl-1-phenethyl-1H-imidazol-4-ylethynyl)-pyridine], the Ki amounted to 33 nM.

Turning to `Cc1cc(C#Cc2cn(C(C)c3ccccc3)c(C)n2)ccn1` (racemic) [Example 23, rac-2-Methyl-4-[2-methyl-1-(1-phenyl-ethyl)-1H-imidazol-4-ylethynyl]-pyridine], the Ki was found to be 77 nM.

Regarding `Cc1cc(C#Cc2cn(Cc3cccc(C)n3)c(C)n2)ccn1` [Example 4, 4-[1-(6-Methyl-pyridin-2-ylmethyl)-2-methyl-1H-imidazol-4-ylethynyl]-2-methyl-pyridine], the Ki is 93 nM.

As for `Cc1nc(C#Cc2cccc(Cl)c2)cn1Cc1ccccn1` [Example 3, 2-[4-(3-Chloro-phenylethynyl)-2-methyl-imidazol-1-ylmethyl]-pyridine], the Ki amounted to 40 nM.

Take `Cc1nc(C#Cc2cccc(C#N)c2)cn1Cc1cncc(Cl)c1` [Example 18, 3-[1-(5-Chloro-pyridin-3-ylmethyl)-2-methyl-1H-imidazol-4-ylethynyl]-benzonitrile]: the Ki stood at 94 nM.
